Each structure is given as a SMILES string.

This is an account of results in patent publication US5049372A, “Anticancer activities in a host by increasing blood and plasma adenosine 5'-triphosphate (ATP) levels” (priority 1988, dated 1991).

Data set [1] concerns RBC ATP pools. Put plainly: Stability of expanded RBC ATP pools in washed isolated RBCs in vitro after i.p. injection (Table 5). Set-up: species or system mouse. The settings on record: average of two experiments; for Medium (Hanks' BSS) [^3 H]ATP levels immediately after [^3 H]adenosine incorporation into isolated, washed RBCs (at time 0) / ATP levels in the medium (Hanks' BSS): time 0; for ATP levels in the medium (Hanks' BSS): bioluminometry; for RBC ATP pools (37° C.), 0 min / RBC ATP pools (37° C.), 120 min: washed RBCs in Hanks' BSS. As for the experimental part:
The mice are anesthetized with ether during the procedure. Plasma or Hanks' (Balanced Salt Solution) BSS media from incubated isolated RBCs (Red Blood Cells) are prepared by centrifugation of whole blood or RBCs in a Beckman microfuge (30 seconds at 8000 xg) and samples of 100 μl are added to 1 ml of ice-cold 7% trichloroacetic acid. Red blood cells are prepared by centrifugation of whole blood (1500 xg for 5 minutes at 4° C.) and removal of plasma and the buffy coat is followed by a wash of the pelleted RBCs (from 250 μl of whole blood) in 5 ml of ice-cold Hanks' BSS. After centrifugations, the RBCs pellet is resuspended in Hanks' BSS to yield a total volume with the original hematocrit (percent of RBCs volume in the whole blood). Aliquots of 20 μl of RBCs suspensions or whole blood are added to 1 ml of ice-cold 7% trichloroacetic acid. Extraction of acid-soluble nucleotides and determinations of ATP levels by luminometry followed procedures discussed hereinabove. Levels of [^3 H]ATP in whole blood, RBCs, plasma, or RBCs incubation media (Hanks' BSS) are determined after incorporation of 250 μCi of [^3 H]adenosine of specific radioactivity of 30 Ci/mmol (1 Ci=3.7×10^10 becquerels) into whole blood or RBC suspensions (250 μl total) followed by immediate trichloroacetic acid extractions as described above. Two dimensional thin layer chromatography on poly(ethylene)imine cellulose with an unlabeled ATP carrier is performed according to Bochner and Ames, J. Biol. Chem., 257, pp. 9759-9769, 1982). For the determination of whole blood or isolated RBC [^3 H]ATP pools, 10 μl of a 1 ml initial trichloroacetic acid extract are chromatographed. Determinations of [^3 H]ATP levels in blood plasma or RBCs incubation media are performed on 300 μl of an initial 1 ml trichloroacetic acid extract which are lyophilized and redissolved in 15 μl of water. After chromatography, the spots corresponding to the ATP carrier are cut, eluted with 0.5 ml of 4 N ammonium hydroxide, and radioactivity determined in 10 ml of scintillation fluid.
Two hour incubations of washed isolated RBCs containing normal or expanded ATP pools in Hanks' BSS result in relatively small decreases in RBC ATP pools with the expanded pools being maintained well above normal levels (Table 5). The expansions of RBC ATP pools after i.p. administration of AMP or ATP in vivo is presumably the result of their dephosphorylation followed by the RBCs uptake of the adenosine which is generated in situ.

In data set [2] the test system is CT26 tumors. Nature of the data set: Growth inhibition of s.c. footpad CT26 tumors in CB6F1 mice by daily i.p. adenine nucleotides (Table 1). The data set is classed as in vivo, mouse. The settings on record: for Effectiveness of concentrations lower than 50 mM against CT26 footpad tumors: daily i.p. in volumes of 1.4-1.8 ml of saline, CB6F1 mice; for Effect of delaying start of treatment on tumor growth inhibition: start delayed until tumors palpable (6-10 days after inoculation); for Inhibition of tumor growth (% of saline-treated): 1 ml of 25 mM, based on tumor weights. The procedure:
The tumor cell lines employed were CT26, a mouse undifferentiated, aggressive colon carcinoma, and CAPAN-1, a well-differentiated human pancreatic adenocarcinoma. […] The cells are shown to be free of Mycoplasma contamination. Cells are cultured at 37° C. in a humidified atmosphere of 5% CO2 /95% air in MEM supplemented with antibiotics (100 units of penicillin per ml and 100 μg streptomycin per ml), L-glutamine (2 mM), non-essential amino acids (0.1 mM), sodium pyruvate (1 mM), and 10% fetal bovine serum.
In the tests, females and males CB6F1 mice (a standard F1 hybrid of BALB/C and C57BL/6) obtained from Jackson Laboratories, Bar Harbor, Maine and athymic outbred NCr nu/nu mice (males and females) from the Department of Radiation Medicine, Massachusetts General Hospital, Boston, Mass. 02114 are used. All the mice are kept for at least two weeks before inoculation of the tumors and the start of treatment and are 7-9 weeks old (CB6F1) or 6-7 weeks old (athymic nu/nu) at the start of the procedure. Animals weigh 20-25 g (females) or 23-28 g (males), are housed 5-12 per cage, and have ad libitum access to food and water.
Tumor cells are removed from subconfluent cultures by a mild trypsin-EDTA treatment, the cell pellet is washed once with MEM without serum and the cells are suspended at the desired cell numbers in PBS (phosphate-bufferedsaline, 8 g NaCl, 0.2 g KCl, 1.15 g Na2 HPO4.7H2 O, and 0.2 g KH2 PO4 per liter). Cell suspensions are shown to be at least 90% viable by trypan blue exclusion. Mice are injected subcutaneously in the right hind footpad with tumor cells suspended in 50 μl of PBS. The regular protocol (unless otherwise stated) consists of daily i.p. injections of 1 ml of 0.85% NaCl solution or 1 ml of 50 mM of AMP, ADP, or ATP in 0.85% NaCl (from stock solutions adjusted to pH 6.2) starting one day after tumor inoculation and given for ten consecutive days.
Injections are administered with 30 gauge needles and the mice are lightly anesthetized with ether. The mice are weighed before the start of treatment and once a week during and after treatment. After the tumors become palpable, tumor sizes are determined every three days. The animals are sacrificed, tumors are excised and weighed before they reach 10% of the animals' weight.
The growth inhibitory properties of adenine nucleotides against CT26 murine colon carcinoma, which are inoculated s.c. in the hind footpad of CB6F1 mice, are illustrated in Table 1 hereinbelow. […] No significant differences between males and females are observed either in the rate of tumor growth or in the tumor's response to adenine nucleotides treatment.

Where [3] appears, read: experiment 3, 12 M per group, 0.5 × 10^6 cells, day 13, 1 ml of 50 mM i.p. daily.
Setting [4] is: experiment 4, 11 F per group, 0.5 × 10^6 cells, day 14, 1 ml of 50 mM i.p. daily.
Setting [5] is: experiment 5, 12 F per group, 0.5 × 10^5 cells, day 16, 1 ml of 50 mM i.p. daily.
The mark [6] stands for this setting: experiment 6, 10 F per group, 0.5 × 10^5 cells, day 18, 1 ml of 50 mM i.p. daily (Ap4A 10 mM).
Where [7] appears, read: experiment 7, 10 F per group, 0.1 × 10^5 cells, day 22, 1 ml of 50 mM i.p. daily.
Setting [8] is: experiment 7, 10 F per group, 0.1 × 10^5 cells, day 22, 1 ml of 50 mM i.p. daily, included one complete cure.
The mark [9] stands for this setting: experiment 1, 10 F per group, 0.5 × 10^6 cells, day 15, 1 ml of 25 mM i.p. daily.
Where [10] appears, read: experiment 2, 10 M per group, 0.5 × 10^6 cells, day 15, 1 ml of 25 mM i.p. daily.

For `Nc1ncnc2c1ncn2[C@@H]1O[C@H](COP(=O)(O)O)[C@@H](O)[C@H]1O` [AMP, adenosine 5'-monophosphate], in data set [1], the “Medium (Hanks' BSS) [^3 H]ATP levels immediately after [^3 H]adenosine incorporation into isolated, washed RBCs (at time 0)” value was 1.81 µM; the “ATP levels in the medium (Hanks' BSS)” value stood at 2.42 µM; the “RBC ATP pools (37° C.), 0 min” value is 1.01 mM; the “RBC ATP pools (37° C.), 120 min” value is given as 0.86 mM. Further, in data set [2], the “Effectiveness of concentrations lower than 50 mM against CT26 footpad tumors” value is reported as “as effective”, the “Most effective pH of the i.p. solution for inhibition of tumor growth” value was 5.5-6.2 and the “Effect of delaying start of treatment on tumor growth inhibition” value was “without any significant effects on the magnitude of tumor growth inhibition”. In data set [2] (setting [3]), this molecule gave a Tumor diameter of 1.2 ± 0.2 cm and a Tumor weight of 0.65 ± 0.21 g. Also, in data set [2] (setting [4]), the Tumor diameter was 1.0 ± 0.3 cm and the Tumor weight is 0.88 ± 0.31 g. Moreover, in data set [2] (setting [5]), the Tumor diameter was determined as 0.6 ± 0.2 cm and the Tumor weight amounted to 0.41 ± 0.18 g. Further, in data set [2] (setting [6]), the Tumor diameter came out at 0.8 ± 0.2 cm and the Tumor weight stood at 0.56 ± 0.21 g. The molecule also came in with a Tumor diameter in data set [2] (setting [7]) of 0.9 ± 0.5 cm. This molecule displayed a Tumor weight in data set [2] (setting [8]) of 0.51 ± 0.28 g.

In the case of `Nc1ncnc2c1ncn2[C@@H]1O[C@H](COP(=O)(O)OP(=O)(O)OP(=O)(O)O)[C@@H](O)[C@H]1O` [ATP, adenosine 5'-triphosphate], the “Medium (Hanks' BSS) [^3 H]ATP levels immediately after [^3 H]adenosine incorporation into isolated, washed RBCs (at time 0)” value in data set [1] is 4.93 µM. Besides, the “ATP levels in the medium (Hanks' BSS)” value in data set [1] came to 4.08 µM. Moreover, in data set [1], the “RBC ATP pools (37° C.), 0 min” value was 2.52 mM. In addition, the “RBC ATP pools (37° C.), 120 min” value in data set [1] is given as 1.76 mM. Further, the “Effectiveness of concentrations lower than 50 mM against CT26 footpad tumors” value in data set [2] is listed as “as effective”. Besides, the Tumor diameter in data set [2] (setting [9]) worked out at 1.3 ± 0.2 cm; in data set [2] (setting [10]), 1.4 ± 0.2 cm; in data set [2] (setting [3]) it was 1.2 ± 0.2 cm; in data set [2] (setting [4]), 1.0 ± 0.2 cm; in data set [2] (setting [5]), 0.5 ± 0.1 cm; in data set [2] (setting [6]), 0.8 ± 0.1 cm. This molecule also came in with a Tumor diameter in data set [2] (setting [7]) of 0.9 ± 0.5 cm. Also, the Tumor weight is reported as 1.34 ± 0.33 g in data set [2] (setting [9]); 1.30 ± 0.29 g in data set [2] (setting [10]); 0.70 ± 0.18 g in data set [2] (setting [3]); 0.84 ± 0.23 g in data set [2] (setting [4]); 0.38 ± 0.10 g in data set [2] (setting [5]); 0.51 ± 0.18 g in data set [2] (setting [6]). The Tumor weight in data set [2] (setting [8]) was determined as 0.68 ± 0.36 g. In addition, the “Inhibition of tumor growth (% of saline-treated)” value in data set [2] (experiment 1, 10 F per group, 0.5 × 10^6 cells, day 15) is reported as 31%; in data set [2] (experiment 2, 10 M per group, 0.5 × 10^6 cells, day 15) it was 30%. The “Most effective pH of the i.p. solution for inhibition of tumor growth” value in data set [2] was 5.5-6.2. Moreover, the “Effect of delaying start of treatment on tumor growth inhibition” value in data set [2] is “without any significant effects on the magnitude of tumor growth inhibition”.
